Literature values, collected in patent US20150283090A1, “USE OF SILICON OXIDE-BASED MATERIAL FOR THE MODIFIED RELEASE OF BIOLOGICALLY ACTIVE AGENTS” (MERCK PATENT GMBH, priority 2012, published 2015).
Where two headings read alike, the source gives them in different places.

What was measured:
[1] = C1 silylation of MCM-41
[2] = silica hybrid gels with methyl or propyl functionalization
[3] = MCM-48 and LP-la3d, pore sizes 3.6 and 5.7 nm, modified with C8 and C18 hydrocarbon chains

For `C[C@H](CS)C(=O)N1CCC[C@H]1C(=O)O` [Captopril], the release rate [1] is listed as “decrease of release rate of Captopril with increasing degree of C1 silylation”.
For `CN[C@H](CC(C)C)C(=O)N[C@H]1C(=O)N[C@@H](CC(N)=O)C(=O)N[C@H]2C(=O)N[C@H]3C(=O)N[C@H](C(=O)N[C@H](C(=O)O)c4cc(O)cc(O)c4-c4cc3ccc4O)[C@H](O)c3ccc(c(Cl)c3)Oc3cc2cc(c3O[C@@H]2O[C@H](CO)[C@@H](O)[C@H](O)[C@H]2O[C@H]2C[C@](C)(N)[C@H](O)[C@H](C)O2)Oc2ccc(cc2Cl)[C@H]1O` [vancomycin], the “release kinetics of vancomycin from SBA-15” value (after functionalizing with octylmethoxysilane (C8)) is given as 0.068 min-½ and the “release kinetics of vancomycin from SBA-15” value (non-functionalized material) is given as 0.890 min-½.
In the case of `OCCN(CCO)c1nc(N2CCCCC2)c2nc(N(CCO)CCO)nc(N3CCCCC3)c2n1` [persantin], the drug release [2] is listed as “inhibition of drug release with an increasing number of methyl or propyl functionalization”.
In the case of `CC(C)Cc1ccc(C(C)C(=O)O)cc1` (centres unmarked) [ibuprofen], the delivery rates [3] is listed as “decrease of delivery rates when the surface of the material is modified”.
